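Where inhibition never reached the appropriate level, the endpoint shown equals the highest concentration tested. Otherwise, values were interpolated linearly from a five-concentration, 48-hour dose response in 96-well plates. TGI: concentration producing complete growth inhibition.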
How the values were obtained:
Assay in all cases: inhibition of tumour cell growth, NCI panel, 48 h
[1] = tested on: CCRF-CEM leukemia
[2] = tested on: DMS 114 small cell lung
[3] = tested on: EKVX NSCLC
[4] = tested on: HCT-116 colon
[5] = tested on: HCT-15 colon
[6] = tested on: HOP-92 NSCLC
[7] = tested on: K-562 leukemia
[8] = tested on: SF-268 CNS
[9] = tested on: SF-539 CNS
[10] = tested on: TK-10 renal

| Structure (SMILES) | TGI [1] | TGI [2] | TGI [3] | TGI [4] | TGI [5] | TGI [6] | TGI [7] | TGI [8] | TGI [9] | TGI [10] |
| --- | --- | --- | --- | --- | --- | --- | --- | --- | --- | --- |
| CN=C(NC(=S)N(C)C)N(C)C | > 100 µM | > 100 µM | > 100 µM | > 100 µM | > 100 µM | > 100 µM | > 100 µM | > 100 µM | > 100 µM | > 100 µM |
| C#CC[N+](C)(CC#C)CC#C | > 100 µM | > 100 µM | > 100 µM |  | > 100 µM | > 100 µM | > 100 µM | > 100 µM |  | > 100 µM |
| Cc1c(CCO)c(=O)n2c([nH]c3ccccc32)c1C#N | > 100 µM | > 100 µM | > 100 µM | > 100 µM | > 100 µM | > 100 µM | > 100 µM | > 100 µM | > 100 µM | > 100 µM |
| O=S(=O)(O)c1ccc(N=Nc2nc(C(F)(F)F)c(C(F)(F)F)[nH]2)cc1 | > 100 µM | 30.5 µM | > 100 µM | > 100 µM | > 100 µM | 31.6 µM | > 100 µM | > 100 µM | 65.9 µM | > 100 µM |
| Nc1c(O)cc(N=C2C(=O)C=CC=C2C(=O)O)c(O)c1C(=O)O |  | > 100 µM | > 100 µM | > 100 µM | > 100 µM | > 100 µM | > 100 µM |  | > 100 µM | > 100 µM |
| COC(=O)C1C=CCON2CCc3c(n(C)c4ccccc34)C12 (stereo not given) | > 100 µM | > 100 µM | > 100 µM | > 100 µM | > 100 µM | > 100 µM | > 100 µM | > 100 µM | > 100 µM | > 100 µM |
| O=C(CCC(=O)Nc1ccc(Cl)c(Cl)c1)CC(=O)c1ccc(F)cc1 | > 100 µM | > 100 µM | > 100 µM | > 100 µM |  | > 100 µM | > 100 µM | > 100 µM | > 100 µM |  |
| CN(C)c1nnnn1-c1c(N)n(C)c(=O)n(C)c1=O | > 100 µM | > 100 µM | > 100 µM | > 100 µM | > 100 µM | > 100 µM | > 100 µM | > 100 µM | > 100 µM | > 100 µM |
| Cc1ccc(NC(=O)C2C(=O)N(c3ccc(C)c(C)c3)C(=O)/C2=N\NC(N)=O)cc1C (stereo not given) | > 100 µM | > 100 µM | > 100 µM | > 100 µM | > 100 µM | > 100 µM | > 100 µM | > 100 µM | > 100 µM | > 100 µM |
| Cn1c(=O)c(NC(=O)C(Cl)(Cl)Cl)nc2ccccc21 | > 100 µM | > 100 µM | > 100 µM | > 100 µM | > 100 µM |  | > 100 µM | > 100 µM | > 100 µM | > 100 µM |
| CCCCCCCCCCCCCCCCNCCCN(C)CCCN |  | 35.1 µM | 42.8 µM | 38 µM | 32.7 µM |  | 49.5 µM | 34.9 µM | 34.5 µM | 29.3 µM |
| S=c1nc(COc2ccc(Cl)cc2Cl)[nH][nH]1 | > 100 µM | > 100 µM | > 100 µM | > 100 µM | > 100 µM | > 100 µM | > 100 µM | > 100 µM | > 100 µM | > 100 µM |
| CCn1c(SC(C)C(=O)c2c(C)n(C)n(-c3ccccc3)c2=O)nc2ccccc2c1=O (stereo not given) | > 100 µM | > 100 µM | > 100 µM | > 100 µM | > 100 µM | > 100 µM |  | > 100 µM | > 100 µM | > 100 µM |
| CS(=O)(=O)NNS(=O)(=O)c1ccccc1 | > 100 µM | > 100 µM | > 100 µM | > 100 µM | > 100 µM |  | > 100 µM | > 100 µM | > 100 µM | > 100 µM |
| O=C(NCCO)c1ccc([N+](=O)[O-])cc1 | > 100 µM | > 100 µM | > 100 µM |  | > 100 µM |  | > 100 µM | > 100 µM | > 100 µM | > 100 µM |
| Cc1nc2c(o1)C(=Nc1ccccc1)c1ccccc1C2=O | 45.9 µM | 8.57 µM | 27.1 µM | 23.2 µM | 22.6 µM | 25.9 µM | > 100 µM | 24 µM | 16.7 µM | 69.9 µM |
| Cc1noc2c1C(=O)CCC2 | > 100 µM | > 100 µM | > 100 µM | > 100 µM |  | > 100 µM | > 100 µM | > 100 µM | > 100 µM | > 100 µM |
| N#CC1CCCCOCCOCCOCCOCCOCCCCCC1=O (stereo not given) | > 100 µM | > 100 µM | > 100 µM | > 100 µM | > 100 µM |  | > 100 µM | > 100 µM |  | > 100 µM |
| O=C1C2=C(c3ccccc31)C(c1ccccc1)N1C(=O)CSC1=N2 (stereo not given) | > 100 µM | > 100 µM | > 100 µM | > 100 µM | 98.1 µM | > 100 µM | > 100 µM | > 100 µM | 97.1 µM | > 100 µM |
| NC(=O)c1ccccc1NC(=O)C(=O)Cc1nc2ccccc2[nH]c1=O | > 100 µM | > 100 µM | > 100 µM | > 100 µM | > 100 µM | > 100 µM | > 100 µM | > 100 µM | > 100 µM | > 100 µM |
| O=[N+]([O-])c1ccc(C2CC(c3ccccc3Cl)=Nc3ccccc3S2=O)cc1 (stereo not given) | 4.37 µM | 4.36 µM | 35.4 µM | 3.49 µM | 5.3 µM | 31.5 µM | 4.57 µM | 30.5 µM | 15.9 µM | 19.9 µM |
| CN(C)C(=Nc1nc(=[N+](C)C)ss1)N(C)C | > 100 µM | > 100 µM | > 100 µM |  | > 100 µM | > 100 µM | > 100 µM | > 100 µM | > 100 µM | > 100 µM |
| O=C1NC(=O)C(=Nc2cccc3c(=O)[nH][nH]c(=O)c23)C(c2nc3ccccc3s2)C1=O (stereo not given) | > 100 µM | > 100 µM | > 100 µM | > 100 µM | > 100 µM | > 100 µM |  | > 100 µM |  | > 100 µM |
| Cc1cn(C2C=CC(CO)O2)c(=O)[nH]c1=O (stereo not given) | > 1000 µM |  | > 1000 µM | > 1000 µM | > 1000 µM | > 1000 µM | > 1000 µM | > 1000 µM | > 1000 µM | > 1000 µM |
